Where two headings read alike, the source gives them in different places.
What was measured:
[1] = Pharmacokinetic study via oral administration in mice, ocular concentrations; format: in vivo, mice C57BL/6; settings: for Tmax: C57BL/6, mouse, eye, po; for Tmax / Eye CMax: mice, p.o. 50 mg/kg in VitE-TPGS 20% in sodium bicarbonate buffer (0.1M); for Eye Exposure 50 mg/kg p.o. AUC: Table 3, repeats the eye exposure of Table 2
Method: (§1) The pharmacokinetic study of the chemical compounds (C) following the oral administration thereof was conducted using mice C57BL/6 (January, 53940 The Genest Saint Isle, France). The chemical compounds derived from norbixin (C) were administered at a dose of 50 mg/kg of body weight. After administration, the blood was sampled at the tail at t=0.25 h; 0.5 h; 1 h; 3 h; 6 h and 8 h. The blood samples were centrifuged and the plasmas taken. The dosage of the plasma samples made it possible to determine pharmacokinetic parameters, namely Cmax, which corresponds to the maximum concentration observed after the administration of the molecule, Tmax which is the time required to reach maximum concentration after administration of the molecule and the AUC: the area under the curve which corresponds to the plasma exposure (FIG. 2).
In parallel, the ocular concentrations of the chemical compounds derived from norbixin (C) were dosed in the following way (FIG. 1): both eyes of each mouse were taken in Precellys tubes and stored at −80° C. until the time of dosing. The eyes are then ground in the Precellys tubes with a bench homogenizer, Fast-prep (Fischer Scientific, Hampton, United States) in a mixture of organic solvents, in a first step with 500 μL of chloroform/methanol (1/1, v/v) then 500 μL of chloroform/dichloromethane (1/1, v/v). The supernatants are recovered at each step and transferred to a 96-well plate of 2 mL.
For the quantification of the chemical compounds C, a calibration curve is carried out with 8 standards (5 to 5,000 ng/mL) in the same organic solvent mixtures and transferred (100 μL) to the 96-well plate of 2 mL.
The supernatants and standards are evaporated in a EZ2 (Genevac, Ipswich, United Kingdom), without heating, then taken with 100 μL of DMSO/methanol (20:80, v/v) before being transferred to a 96-well plate of 200 μL.
(§2) The LC-MSMS analysis is carried out with a HPLC 1200 Infinity chain (Agilent Technologies, Santa-Clara, United States), a UV detector and a mass spectrometer QQQ6420 (Agilent Technologies Santa-Clara, United States). The injection volume is 5 μL. The chemical compounds C are eluted on an inverse phase column C18 (2.1*50 mm, particles 3 μm; Ace-C18-Excel, AIT) with a gradient of acetonitrile and water (containing 0.1% formic acid) and a flow rate of 0.3 mL/min. The conditions of the gradient can change according to the chemical compound C analyzed. The UV detector analyzes at 460 nm and the mass spectrometer analyzed in Mode MRM—Positive.
(§3) Table 2 discloses the pharmacokinetic results of the chemical compounds C following the administration p.o. 50 mg/kg in D-α-Tocopheryl polyethylene glycol 1000 succinate (VitE-TPGS) 20% in a sodium bicarbonate buffer (0.1M).

[2] = Pharmacokinetic study via oral administration in mice, plasma concentrations; format: in vivo, mice C57BL/6
Method: as §1, §2, §3

[3] = test system: primary cultures of RPE of adult pigs; experiment: In vitro photoprotection of RPE cells illuminated with blue light in the presence of A2E; format: cell-based, pig; settings: Sus scrofa, RPE, A2E 30 μM, survival 24 h after illumination; for viability at 5 µM: 5 μM compound; for viability at 10 µM: 10 μM compound; for viability at 20 µM: 20 μM compound
Description: In addition to better distribution in the target-tissue, selecting new compounds must also be based on good photo-protective activity that limits the loss of the cells of the RPE and thus reducing the retinal degeneration observed during the AMD and other degenerative diseases such as Retinitis pigmentosa and Stargardt's disease. At the cellular level, on cultures of cells the RPE coming from pig retina, Fontaine et al. (2016) have shown that a treatment with norbixin (BIO201) protects the cells of the RPE against apoptosis following an illumination in the presence of A2E (80% survival 24 h after exposure). This same screening test according to the percentage of photoprotection was used so as to determine its modulation by and the chemical compounds derived from norbixin (C) object of the present invention in comparison with the photo-protective effect of norbixin and characterize these modulations from a statical standpoint.
The test in vitro described hereinabove and intended to study the photo-protective effect of norbixin was used so as to quantify the photo-protective effects of the various chemical compounds derived from norbixin (C) on the cells of the RPE illuminated with blue light in the presence of A2E (FIG. 3). The photo-protective effect of the molecules was evaluated in a phototoxicity cellular model induced by treatment by A2E followed by an illumination with blue light. The term “blue radiation” means the radiation corresponding to the blue band of the visible light spectrum, i.e. of a wavelength comprised between 435 and 490 nm. This model uses primary cultures of RPE of adult pigs. The cell survival is quantified thanks to a test of cellular viability. At −48 h the compounds to be tested (in solution at 5 mM in the DMSO) are added to obtain the final concentrations of 1 to 20 μM) then at −19 h of the A2E (final concentration 30 μM) and the cells (time 0 h) are illuminated. 24 h after the survival of the cells is measured. The acquisition of images, as well as the processing thereof, are carried out using a fluorescence microscope controlled by the Metamorph software and a dedicated quantification program. The experiments are conducted on a 96-well microplate in quadruplicate and the experiment is reproduced at least four times. The results are expressed in the form of a ratio representing the number of living cells in the wells treated by the molecules to be tested, divided by the number of living cells in the controlled wells (treated by the dilution medium without A2E). This test made it possible hereinabove to reveal the photo-protective activity of norbixin (Fontaine et al. 2016).

[4] = C57BL/6, mouse, in vivo, po, 50 mg/kg

Row | Tmax [1] [min] | Eye Exposure 50 mg/kg p.o. AUC [1] [ng · h/eye] | Eye CMax [1] [ng/eye] | Cmax [2, 4] [ng/mL] | Plasma Exposure [2, 4] [µg·h/mL] | Tmax [2, 4] [min] | SMILES | viability at 5 µM [3] [%] | viability at 10 µM [3] [%] | viability at 20 µM [3] [%] | Cmax ([2]; C57BL/6, mouse, in vivo, po, mice, p.o. 50 mg/kg in VitE-TPGS 20% in sodium bicarbonate buffer (0.1M), read-out: Plasma CMax) [ng/mL] | Tmax ([2]; C57BL/6, mouse, in vivo, po, mice, p.o. 50 mg/kg in VitE-TPGS 20% in sodium bicarbonate buffer (0.1M), read-out: Plasma TMax) [min] | Plasma Exposure ([2]; mice, p.o. 50 mg/kg in VitE-TPGS 20% in sodium bicarbonate buffer (0.1M), area under the curve) [µg·h/mL]
1 | 60 | 452.0 | 53.1 | 37900 | 342.68 | 60 | CC(=C/C=C/C(C)=C/C=C/C=C(C)/C=C/C=C(C)/C=C/C(=O)N1CCC(O)C1)/C=C/C(=O)O (stereo in doubt) [C9, 1-[(S)-3-hydroxypyrrolidinamido](2E,4E,6E,8E,10E,12E,14E,16Z,18E)-4,8,13,17-tetramethylicosa-2,4,6,8,10,12,14,16,18-nonaenedioate] | 22.1 | 32 | 63.7 |  |  | 
2 | 60 | 238.4 | 47.7 | 35900 | 190 | 60 | CC(=C/C=C/C(C)=C/C=C/C=C(C)/C=C/C=C(C)/C=C/C(=O)N1CCC(O)C1)/C=C/C(=O)O (stereo in doubt) [C11, 1-[(R)-3-hydroxypyrrolidinamido](2E,4E,6E,8E,10E,12E,14E,16Z,18E)-4,8,13,17-tetramethylicosa-2,4,6,8,10,12,14,16,18-nonaenedioate] | 21.1 | 39.3 | 63.4 |  |  | 
3 | 30 | 26.6 | 10.7 | 18700 | 52.66 | 30 | COCCNC(=O)/C=C/C(C)=C/C=C/C(C)=C/C=C/C=C(C)/C=C/C=C(C)\C=C\C(=O)O [C1, 1-[2-methoxyethanamido](2E,4E,6E,8E,10E,12E,14E,16Z,18E)-4,8,13,17-tetramethylicosa-2,4,6,8,10,12,14,16,18-nonaenedioate] | 55 | 67.7 | 77.8 |  |  | 
4 | 30 | 19.1 | 5.1 | 4050 | 10.37 | 30 | CC(=C/C=C/C(C)=C/C=C/C=C(C)/C=C/C=C(C)/C=C/C(=O)N1CCCCC1)/C=C/C(=O)O [C3, 1-[piperidinamido](2E,4E,6E,8E,10E,12E,14E,16Z,18E)-4,8,13,17-tetramethylicosa-2,4,6,8,10,12,14,16,18-nonaenedioate] | 11.3 | 68.1 | 45.1 |  |  | 
5 | 30 | 30.0 | 10.2 | 57100 | 208.6 | 60 | CC(=C/C=C/C(C)=C/C=C/C=C(C)/C=C/C=C(C)/C=C/C(=O)NCCO)/C=C/C(=O)O [C4, 1-[2-hydroxyethanamido](2E,4E,6E,8E,10E,12E,14E,16Z,18E)-4,8,13,17-tetramethylicosa-2,4,6,8,10,12,14,16,18-nonaenedioate] | 16.4 | 36 | 67.2 |  |  | 
6 | 30 | 188.7 | 31.4 | 37700 | 299.9 | 60 | CC(=C/C=C/C(C)=C/C=C/C=C(C)/C=C/C=C(C)/C=C/C(=O)N1CCCOCC1)/C=C/C(=O)O [C5, 1[1,4-oxazepanamido](2E,4E,6E,8E,10E,12E,14E,16Z,18E)-4,8,13,17-tetramethylicosa-2,4,6,8,10,12,14,16,18-nonaenedioate] | 11.3 | 25.6 | 36 |  |  | 
7 | 30 | 23.1 | 3.9 | 3950 | 10.81 | 30 | CC(=C/C=C/C(C)=C/C=C/C=C(C)/C=C/C=C(C)/C=C/C(=O)N1CCSCC1)/C=C/C(=O)O [C6] |  | 60.6 | 19.1 |  |  | 
8 | 30 | 18.5 | 7 | 6890 | 17.29 | 30 | CC(=C/C=C/C(C)=C/C=C/C=C(C)/C=C/C=C(C)/C=C/C(=O)N1CCCC1)/C=C/C(=O)O [C7, 1-pyrrolidinamido-(2E,4E,6E,8E,10E,12E,14E,16Z,18E)-4,8,13,17-tetramethylicosa-2,4,6,8,10,12,14,16,18-nonaenedioate] | 5.2 | 52.8 |  |  |  | 
9 | 60 | 472.4 | 56.8 | 59800 | 173.74 | 30 | CC(=C/C=C/C(C)=C/C=C/C=C(C)/C=C/C=C(C)/C=C/C(=O)NCCCN1CCOCC1)/C=C/C(=O)O [C8] | 28.6 | 33.4 | 75.2 |  |  | 

Row | SMILES | Tmax [1] [min] | Eye Exposure 50 mg/kg p.o. AUC [1] [ng · h/eye] | Eye CMax [1] [ng/eye] | Cmax [2, 4] [ng/mL] | Plasma Exposure [2, 4] [µg·h/mL] | Tmax [2, 4] [min] | viability at 5 µM [3] [%] | viability at 10 µM [3] [%] | viability at 20 µM [3] [%] | Cmax ([2]; C57BL/6, mouse, in vivo, po, mice, p.o. 50 mg/kg in VitE-TPGS 20% in sodium bicarbonate buffer (0.1M), read-out: Plasma CMax) [ng/mL] | Tmax ([2]; C57BL/6, mouse, in vivo, po, mice, p.o. 50 mg/kg in VitE-TPGS 20% in sodium bicarbonate buffer (0.1M), read-out: Plasma TMax) [min] | Plasma Exposure ([2]; mice, p.o. 50 mg/kg in VitE-TPGS 20% in sodium bicarbonate buffer (0.1M), area under the curve) [µg·h/mL]
10 | CC(=C/C=C/C(C)=C/C=C/C=C(C)/C=C/C=C(C)/C=C/C(=O)N1CCOCC1)/C=C/C(=O)O [C2, 1-[1,4-oxazinamido](2E,4E,6E,8E,10E,12E,14E,16Z,18E)-4,8,13,17-tetramethylicosa-2,4,6,8,10,12,14,16,18-nonaenedioate] | 30 | 186.5 | 41 |  |  |  | 33.9 | 22.3 | 49.1 | 34000 | 30 | 176.2
